From patent publication US9101613B2, “Methods for treating neurological disease” (Neurim Pharmaceuticals (1991) Ltd., priority 2006, dated 2015)

Tests used:
[1] = target: T1, MT-2 receptor (Homo sapiens, UniProt P49286); assay: 125I-melatonin binding in membranes of CHP-K1 cells, MT-2; details: 0.05 nM 125I-melatonin; for IC50 / Ki: 25° C., 4 hours; for IC50: read-out: MT-2 receptor binding IC50; for Ki: read-out: MT-2 receptor binding KI; for inhibition at 10 µM: read-out: MT-2 receptor binding % inhibition by 10 μM
T1 construct: expressed in transfected cells; host or cells: CHP-K1 (Chinese hamster ovary) cells (so in the source)
T1 sequence (P49286 1-362): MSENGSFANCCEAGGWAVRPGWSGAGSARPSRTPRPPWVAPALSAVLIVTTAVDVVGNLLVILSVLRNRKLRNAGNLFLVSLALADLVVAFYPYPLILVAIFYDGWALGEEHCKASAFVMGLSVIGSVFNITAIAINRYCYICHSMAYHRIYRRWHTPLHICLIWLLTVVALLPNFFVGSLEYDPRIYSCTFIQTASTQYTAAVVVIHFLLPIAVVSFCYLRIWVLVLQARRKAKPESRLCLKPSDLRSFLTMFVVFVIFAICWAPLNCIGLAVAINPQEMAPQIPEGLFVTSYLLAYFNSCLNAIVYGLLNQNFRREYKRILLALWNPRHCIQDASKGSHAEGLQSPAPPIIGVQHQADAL
Description: (§1) Aliquots of suspended membranes of human recombinant CHP-K1 (Chinese hamster ovary) cells stably expressing human melatonin-1 or melatonin-2 (MT-1 or MT-2) receptors or of hamster brain (MT-3) were incubated at 25° C. with 0.05 nM ^125I-melatonin in buffer (25 mM HEPES, pH 7.4, 5 mM MgCl2, 1 mM CaCl2, 0.5% BSA) or with 0.1 nM for MT-3 alone or in the presence of 1 nM, 10 nM, 0.1 μM, 1 μM and 10 μM of test substances N-[2-(5-methoxy-indol-3-yl)-ethyl]-commenamide, N-[2-(5-methoxy-indol-3-yl)-ethyl]-comanilamide, N-[2-(5-methoxy-indol-3-yl)-ethyl]-coumalylamide, N-[2-(5-methoxy-indol-3-yl)-ethyl]-2-methoxy-commenamide, N-[2-(5-methoxy-indol-3-yl)-ethyl]-chelidonamide, O-[2-(5-methoxy-indol-3-yl)-ethyl]-comenic ester, N-[2-(5-methoxy-indol-3-yl)-ethyl]-2-Pyrone-6-carboxamide and N-[2-(2-bromo-5-methoxy-indol-3-yl)-ethyl]-coumalylamide for 3 hours for MT-1, 4 hours for MT-2 and 30 min for MT-3. The binding reaction was terminated and the membranes were washed with 4 ml of ice-cold HEPES buffer by vacuum filtration. Membranes were then collected, and the filters containing the bound ^125I-melatonin were assayed for the amount of radioactivity in a […]. Non-specific binding was evaluated using a reaction with 1 μM 6-chloromelatonin (MT-1 and MT-2) or 30 μM melatonin (MT-3).

[2] = target: T2, MT-1 receptor (Homo sapiens, UniProt P48039); assay: 125I-melatonin binding in membranes of CHP-K1 cells, MT-1; details: 0.05 nM 125I-melatonin; for IC50 / Ki: 25° C., 3 hours; for IC50: read-out: MT-1 receptor binding IC50; for Ki: read-out: MT-1 receptor binding KI; for inhibition at 10 µM: read-out: MT-1 receptor binding % inhibition by 10 μM
T2 construct: expressed in transfected cells; host or cells: CHP-K1 (Chinese hamster ovary) cells (so in the source)
Description: as §1

[3] = system: CD1 mice; assay: Potentiation of hexobarbital-Na sleep time in mice; type: in vivo
Description: CD1 mice were divided randomly into groups of seven mice each. The mice in each group were administered intraperitoneally a dose of one of the following: 100 mg/kg of one of test substances O-[2-(5-methoxy-indol-3-yl)-ethyl]-comenic ester, N-[2-(5-methoxyindol-3-yl)-ethyl]-commenamide, N-[2-(5-methoxy-indol-3-yl)-ethyl]-coumalylamide, N-[2-(5-methoxy-indol-3-yl)-ethyl]-chelidonamide, N-[2-(5-methoxy-indol-3-yl)-ethyl]-comanilamide or N-[2-(5-methoxy-indol-3-yl)-ethyl]-2-methoxy-commenamide in saline (0.1 ml/10 g body weight), or saline alone. Fifteen minutes later the mice received a dose of 50 mg/kg of hexobarbital-Na intravenously. Sleep time was measured in each animal as the time from loss to recovery of the righting reflex.

[4] = system: 3T3-L1 adipocytes; assay: 2-[3H]-deoxy-d-glucose uptake in FFA-treated 3T3-L1 adipocyte model; type: cell-based
Description: Adipocytes were glucose-starved for 1 h in Hepes-salt buffer containing 2% FFA-free BSA. FFA (free fatty acids) were then added to the cells at the indicated concentrations (300 μM) for the indicated times (3 h). 10 min before the end of the FFA treatment, the cells were stimulated with insulin (20 nM)/melatonin (10 nM)/test compounds (10 nM) at 37° C. 2-[^3H]-deoxy-d-glucose at 1 μCi/mL and 0.1 mM unlabeled 2-deoxyglucose in KRP-HEPES buffer was added and cells were incubated for 10 min at room temperature. Non-specific glucose uptake was measured by parallel incubations in the presence of 10 μM cytochalasin B, which blocks transporter-mediated glucose uptake, and was subtracted from total uptake in each assay. Cells were then washed three times with ice-cold phosphate buffered saline (PBS) and solubilized in 1M NaOH for 20 minutes. The sample was then counted using a scintillation counter. 2-[^3H]-deoxy-d-glucose uptake was assayed in triplicates for each condition in at least 3 independent experiments. 2-[^3H]-deoxy-d-glucose uptake (counts per minute-cpm) are presented as mean+SE of triplicates in a representative experiment or results of three independent experiments. ANOVA test was used with significance of P<0.05 (Table 7).

[5] = system: mice; assay: Rotarod assay, interaction with diazepam;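 note: Success means running more than 120 min on the rod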; type: in vivo; details: Diazepam 1.5 mg/kg p.o. + Vehicle i.p.; 15 rpm
Description: The incidences of animals running more than […] on the rotating rod were noted, and significances were calculated by non-parametric x^2 test. 8 mice/group were used.
The rotarod apparatus is divided into five test zones, so that up to five mice may be tested at the same time. The rod has been specially machined to provide a suitable grip for the animal. The diameter of the rod is 3.5 cm. The rotation speed was 15 rpm. When the animal falls off the rotating rod, it presses a button to record automatically the time spent on the rod. On the day before the experiment the mice were trained to run on the rod rotating with 15 rpm. Diazepam was administered orally 60 min before the rotarod assay, test substances were administered intraperitoneally 15 min before testing.

[6] = system: rat primary cortical neurons; assay: Neurite outgrowth in rat primary cortical neurons; type: cell-based; details: 5 days of culture
Description: The aim of this study was to assess the potential effect of N-[2-(5-methoxy-indol-3-yl)-ethyl]-comanilamide (100 nM) after 5 days of culture on neurite outgrowth in rat primary cortical neurons. The study used three separate cultures (n=6 wells per condition); the mean value of the 3 cultures (+/−sem) was calculated.
Rat cortical neurons were cultured as described by Singer et al., 1999. Briefly pregnant female rats of 15 days gestation are killed by cervical dislocation (Rats Wistar; Janvier) and the fetuses removed from the uterus. The cortex are removed and placed in ice-cold medium of Leibovitz (L15; Invitrogen) containing 1% of Penicillin-Streptomycin (PS; Invitrogen) and 1% of bovine serum albumin (BSA; Sigma). Cortex are dissociated by trypsinisation for 20 min at 37° C. (Trypsin EDTA 1×; Invitrogen) diluted in PBS without calcium and magnesium. The reaction is stopped by the addition of Dulbecco's modified Eagle's medium (DMEM; Invitrogen) containing DNAase I grade II (0.1 mg/ml; Roche Diagnostic) and 10% of fetal calf serum (FCS; Invitrogen). Cells are then mechanically dissociated by 3 passages through a 10 ml pipette. Cells are then centrifuged at 180×g for 10 min at 10° C. The supernatant is discarded and the cells of pellet are re-suspended in a defined culture medium consisting of Neurobasal (Invitrogen) supplemented with B27 (2%; Invitrogen), L-glutamine (0.2 mM; Invitrogen) and 1% of PS solution with 10 ng/ml of Brain-derived neurotrophic factor (BDNF).
For the neurite outgrowth assay, the cells are seed with test compound A (at 100 nM) and reference compound (BDNF at 10 ng/ml used as reference control) on defined medium (Neurobasal supplemented with 2% of B27, 0.2 mM of L-glutamine and 1% of PS).
The cultures were done (a) without BDNF in order to analyse the neurotrophic effect of compounds alone and (b) with low BDNF concentration (0.5 ng/ml) in order to analyse the synergic neurotrophic effect of N-[2-(5-methoxy-indol-3-yl)-ethyl]-comanilamide with the growth factor.
After 5 days of culture in presence of N-[2-(5-methoxy-indol-3-yl)-ethyl]-comanilamide and reference, cells were fixed by a cool solution of ethanol (95%) and acetic acid (5%) for 10 min. After permeabilization with 0.1% of saponin, cells were incubated with monoclonal antibody anti microtubule associated protein 2 (MAP-2; Sigma). This antibody stains specifically cell bodies and neurite of neurons. […] Nuclei of neurons were labeled by a fluorescent marker (Hoechst solution, SIGMA). Per well, 20 pictures were taken using InCell Analyzer™ 1000 (GE Healthcare) with 20× magnification. All images were done in the same conditions. Analysis of the neuritis networks and neuron were assessed using Developer software (GE Healthcare). […]

T2 sequence (P48039 whole entry): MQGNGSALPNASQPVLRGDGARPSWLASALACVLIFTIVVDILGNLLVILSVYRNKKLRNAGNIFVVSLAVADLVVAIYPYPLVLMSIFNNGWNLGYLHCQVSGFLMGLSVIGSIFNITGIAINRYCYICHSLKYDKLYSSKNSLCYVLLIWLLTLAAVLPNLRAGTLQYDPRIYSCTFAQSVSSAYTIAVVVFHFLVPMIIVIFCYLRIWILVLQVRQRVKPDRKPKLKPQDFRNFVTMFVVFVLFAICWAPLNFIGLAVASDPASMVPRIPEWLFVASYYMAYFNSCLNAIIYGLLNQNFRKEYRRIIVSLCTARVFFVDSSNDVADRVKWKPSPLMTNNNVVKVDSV

Row | Molecule | IC50 [1] [nM] | Ki [1] [nM] | inhibition at 10 µM [1] [%] | IC50 [2] [nM] | Ki [2] [nM] | inhibition at 10 µM [2] [%] | further results
1 | COc1ccc2[nH]cc(CCNC(=O)c3cccc(=O)o3)c2c1 [N-[2-(5-methoxy-indol-3-yl)-ethyl]-2-Pyrone-6-carboxamide] | 5060 | 2630 | 65 | 10100 | 5240 | 50 | –
2 | COc1ccc2[nH]cc(CCOC(=O)c3cc(=O)c(O)co3)c2c1 [O-[2-(5-methoxy-indole-3-yl)-ethyl]-comenic ester] | 1640 | 850 | 78 | – | – | 47 | effect on hexobarbital-Na narcosis time ([3]; 100 mg/kg i.p.): significantly increased the hexobarbital-Na narcosis time; Changes (%) vs. Vehicle (sleep time) ([3]; 100 mg/kg i.p. 15 min before 50 mg/kg hexobarbital-Na i.v.): +108%; Mean Sleep Time-Treatment (min) ± SE ([3]; 100 mg/kg i.p. 15 min before 50 mg/kg hexobarbital-Na i.v., loss to recovery of righting reflex): 15.15 ± 6.02 min; 2-[3H]-deoxy-d-glucose uptake (cpm) ([4]; Insulin 20 nM + FFA 300 μM (3 h) + substance 10 nM): 1787 cpm
3 | COc1ccc2[nH]c(Br)c(CCNC(=O)c3ccc(=O)oc3)c2c1 [N-[2-(2-bromo-5-methoxy-indol-3-yl)-ethyl]-coumalylamide] | 850 | 441 | 89 | 2400 | 1250 | 76 | –
4 | CN1C(=O)CN=C(c2ccccc2)c2cc(Cl)ccc21 [Diazepam, reference compound] | – | – | – | – | – | – | Incidence of performance (rotarod) [5]: 6/8
5 | Insulin | – | – | – | – | – | – | 2-[3H]-deoxy-d-glucose uptake (cpm) ([4]; Insulin (20 nM) alone, no FFA): 1839 cpm
6 | BDNF: Brain-derived neurotrophic factor, growth factor used as reference compound (protein, UniProt P23560 19-247, looked up) Neurotrophic factor BDNF …: APMKEANIRGQGGLAYPGVRTHGTLESVNGPKAGSRGLTSLADTFEHVIEELLDEDQKVRPNEENNKDADLYTSRVMLSSQVPLEPPLLFLLEEYKNYLDAANMSMRVRRHSDPARRGELSVCDSISEWVTAADKKTAVDMSGGTVTVLEKVPVSKGQLKQYFYETKCNPMGYTKEGCRGIDKRHWNSQCRTTQSYVRALTMDSKKRIGWRFIRIDTSCVCTLTIKRGR | – | – | – | – | – | – | neurite length, % of control ([6]; BDNF 0.5 ng/ml alone): ~125 % of control; neurite length, % of control ([6]; BDNF 10 ng/ml reference): ~153 % of control
